# Data reported in patent US20260232634A1, “TREATMENT OF PEDIATRIC CANCERS USING GYLCOGEN SYNTHASE KINASE FORM B INHIBITORS” (Actuate Therapeutics Inc., priority 2023, published 2026).
# Where “and” joins values, the source holds several entries; their conditions need not be identical. Equal values may be shown once. Entries after “also recorded” stand apart in the source; their conditions may differ.
# Assays:
# [1] = 1801 adult study, tolerated dose level; assay type: in vivo, human (adult)
# [2] = tested on: 93T449 liposarcoma cell line; assay: Luminex cytokine profiling; assay type: cell-based, Human; details: 93T449, 0.5 μM 9-ING-41 for 24 hours
# Description: (§1) Saos-2 osteosarcoma and 93T449 liposarcoma cell lines were pretreated at IC5072 with small molecule GSK-3 inhibitor 9-ING-41 (elraglusib). The cells were harvested for western blot analysis after 48 hours of treatment. Additionally, both cancer cell lines as well as TALL-104 T-cells and NK-92 NK cells were treated with 0.5 μM 9-ING-41 for 24 hours and harvested for Luminex cytokine profiling. […] Additionally, an increase in PD-L1 expression was observed. […] Follow-up cytokine profiling is in progress. […] The potential synergistic effect of these two therapies is currently under investigation with co-culture experiments of sarcoma and immune cells. The treatment cohorts for these experiments include 9-ING-41 combined with either anti-PD-L1, anti-PD-1, or anti-CTLA-4 immune checkpoint inhibitors.
# [3] = tested on: Saos-2 osteosarcoma cell line; assay: Luminex cytokine profiling; assay type: cell-based, Human
# Description: as §1
# [4] = Human pharmacokinetics of 9-ING-41 from study NCT03678883; details: in vivo, intravenous, dose 9.3 mg/kg (current dose)
# Description: Example 1. Human Pharmacokinetics of 9-ING-41 from Study
# TALL-104 T-cells = assay: Luminex cytokine profiling; assay type: cell-based; details: 0.5 μM 9-ING-41 for 24 hours
# Description: as §1
# NK-92 NK cells = assay: Luminex cytokine profiling; assay type: cell-based; details: NK-92 cells, 0.5 μM 9-ING-41 for 24 hours
# Description: as §1
# refractory malignancies = assay: Phase 1/2 study of 9-ING-41 as a single agent or with chemotherapy in pediatric patients with refractory malignancies; assay type: in vivo, human (pediatric patients); details: for OS (overall survival) / Notes (response): intermediate data; for Best Response / Status Last FUP / Survival: unaudited data
# [5] = tested on: 93T449 liposarcoma cell line; assay: Western blot analysis after 9-ING-41 treatment; assay type: cell-based, Human; details: 93T449, pretreated at IC5072, harvested after 48 hours
# Description: as §1
# [6] = tested on: Saos-2 osteosarcoma cell line; assay: Western blot analysis after 9-ING-41 treatment; assay type: cell-based, Human; details: Saos-2, pretreated at IC5072, harvested after 48 hours
# Description: as §1
# [7] = CIC rearranged sarcoma patient, elraglusib 15 mg/kg + Cyclophosphamide/topotecan
# [8] = Ependymoma patient, elraglusib 9.3 mg/kg + Cyclophosphamide/topotecan
# [9] = Ependymoma patient, elraglusib 12.4 mg/kg, chemotherapy backbone N/A
# [10] = Ependymoma patient, elraglusib 15 mg/kg + Irinotecan
# [11] = Ewing sarcoma patient, 9-ING-41 9.3 mg/kg + Cyclophosphamide/topotecan
# [12] = Ewing sarcoma patient, elraglusib 9.3 mg/kg + Cyclophosphamide/topotecan
# [13] = Ewing sarcoma patient, elraglusib 12.4 mg/kg + Cyclophosphamide/topotecan
# [14] = Ewing sarcoma patient, elraglusib 15 mg/kg + Cyclophosphamide/topotecan
# [15] = Glioblastoma multiforme (GBM) patient, elraglusib 12.4 mg/kg + Cyclophosphamide/topotecan
# [16] = Neuroblastoma patient, 9-ING-41 12.4 mg/kg + Cyclophosphamide/topotecan
# [17] = Neuroblastoma patient, elraglusib 9.3 mg/kg + Irinotecan
# [18] = Neuroblastoma patient, elraglusib 12.4 mg/kg + Cyclophosphamide/topotecan
# [19] = Neuroblastoma patient, elraglusib 12.4 mg/kg + Irinotecan
# [20] = Neuroblastoma patient, elraglusib 15 mg/kg + Cyclophosphamide/topotecan
# [21] = Osteosarcoma patient, elraglusib 9.3 mg/kg + Cyclophosphamide/topotecan
# [22] = Rhabdomyosarcoma patient, elraglusib 9.3 mg/kg + Irinotecan
# [23] = seven metastatic, refractory Ewing and Ewing-like sarcoma patients, elraglusib+cyclophosphamide/topotecan
structure (smiles),measurement,setting,value
"Cn1cc(C2=C(c3coc4ccc(F)cc34)C(=O)NC2=O)c2cc3c(cc21)OCO3 [9-ING-41, 3-(5-Fluorobenzofuran-3-yl)-4-(5-methyl-5H-[1,3]dioxolo[4,5-f]indol-7-yl) pyrrole-2,5-dione]",highest currently tolerated dose level,[1],tolerated dose level in the 1801 adult study (15 mg/kg).
same,growth factor TGF-α,[2],homogenous increase
same,IL-6,"[3]; Saos-2 (only this cancer cell line), 0.5 μM 9-ING-41 for 24 hours",increase
same,growth factor TGF-α,"[3]; Saos-2, 0.5 μM 9-ING-41 for 24 hours",homogenous increase
same,AUC(0-inf),[4],45700 ng·h/mL
same,Cmax,[4],6410 ng/mL
same,half-life,[4],1130 ± 378 min
same,AUC(0-t),[4]; read-out: AUC(0-24),42000 ng·h/mL
same,CXCL11,TALL-104 T-cells,increase
same,IL-18,TALL-104 T-cells,increased level
same,IL-8 chemokine,NK-92 NK cells,increase
same,soluble TRAIL (TRAIL/TNFSF10),NK-92 NK cells,increase
same,patients with stable disease,"refractory malignancies; 6 patients (2 NBL, 1 aRMS, 1 EP, 1 OS, 1 GBM)",26.1%
same,patients remaining on study treatment ≥3 months,"refractory malignancies; 8 pts (2 NBL, 2 EP, 1 OS, 1 aRMS, 1 ES, 1 PB)",35%
same,OS (overall survival),"refractory malignancies; Adrenocortical carcinoma patient, 9-ING-41 15 mg/kg + Cyclophosphamide/topotecan",102 days
same,OS (overall survival),"refractory malignancies; Alveolar rhabdomyosarcoma patient, 9-ING-41 9.3 mg/kg + Irinotecan",375 days
same,OS (overall survival),"refractory malignancies; CIC rearranged sarcoma patient, 9-ING-41 15 mg/kg + Cyclophosphamide/topotecan",47 days
same,Best Response,refractory malignancies; [7],PD (progressive disease)
same,Status Last FUP,refractory malignancies; [7],Dead
same,Survival,refractory malignancies; [7],48 days
same,OS (overall survival),"refractory malignancies; Embryonal CNS tumor NOS patient, 9-ING-41 9.3 mg/kg + Irinotecan",262 days
same,Best Response,refractory malignancies; [8],PD (progressive disease)
same,Status Last FUP,refractory malignancies; [8],Alive
same,Survival,refractory malignancies; [8],182 days
same,Best Response,refractory malignancies; [9],SD (stable disease)
same,Status Last FUP,refractory malignancies; [9],Dead
same,Survival,refractory malignancies; [9],440 days
same,Best Response,refractory malignancies; [10],SD (stable disease)
same,Status Last FUP,refractory malignancies; [10],Dead
same,Survival,refractory malignancies; [10],757 days and 526 days
same,Notes (response),refractory malignancies; [11],pCR-
same,OS (overall survival),refractory malignancies; [11],379 days
same,OS (overall survival),"refractory malignancies; Ewing sarcoma patient, 9-ING-41 12.4 mg/kg + Cyclophosphamide/topotecan",176 days
same,Status Last FUP,refractory malignancies; [12],Alive
same,Survival,refractory malignancies; [12],804 days
same,Best Response,refractory malignancies; [13],SD (stable disease)
same,Status Last FUP,refractory malignancies; [13],Dead
same,Survival,refractory malignancies; [13],177 days
same,Best Response,refractory malignancies; [14],SD (stable disease); also recorded: PR (partial response)
same,Status Last FUP,refractory malignancies; [14],Dead and Alive
same,OS (overall survival),"refractory malignancies; Glioblastoma multiforme (GBM) patient, 9-ING-41 12.4 mg/kg + Cyclophosphamide/topotecan",406 days
same,Best Response,refractory malignancies; [15],SD (stable disease)
same,Status Last FUP,refractory malignancies; [15],Alive
same,Survival,refractory malignancies; [15],407 days
same,OS (overall survival),"refractory malignancies; High grade astrocytoma patient, 9-ING-41 15 mg/kg, combo treatment N/A",97 days
same,OS (overall survival),"refractory malignancies; Neuroblastoma patient, 9-ING-41 9.3 mg/kg + Irinotecan, 9.3 mg/kg",245 days and 389 days
same,Notes (response),refractory malignancies; [16],pCR-
same,OS (overall survival),refractory malignancies; [16],308 days
same,OS (overall survival),"refractory malignancies; Neuroblastoma patient, 9-ING-41 15 mg/kg + Cyclophosphamide/topotecan",113 days
same,OS (overall survival),"refractory malignancies; Neuroblastoma patient, 9-ING-41 15 mg/kg + Irinotecan",68 days
same,Best Response,refractory malignancies; [17],SD (stable disease); also recorded: PD (progressive disease)
same,Status Last FUP,refractory malignancies; [17],Dead
same,Survival,refractory malignancies; [17],245 days and 389 days
same,Status Last FUP,refractory malignancies; [18],Dead
same,Survival,refractory malignancies; [18],438 days
same,Best Response,refractory malignancies; [19],SD (stable disease)
same,Status Last FUP,refractory malignancies; [19],Dead
same,Survival,refractory malignancies; [19],360 days
same,Best Response,refractory malignancies; [20],SD (stable disease)
same,Status Last FUP,refractory malignancies; [20],Alive
same,Survival,refractory malignancies; [20],440 days
same,OS (overall survival),"refractory malignancies; Osteosarcoma patient, 9-ING-41 9.3 mg/kg + Cyclophosphamide/topotecan",389 days
same,Best Response,refractory malignancies; [21],SD (stable disease)
same,Status Last FUP,refractory malignancies; [21],Alive
same,Survival,refractory malignancies; [21],481 days
same,OS (overall survival),"refractory malignancies; Progressive ependymoma patient, 9-ING-41 9.3 mg/kg + Cyclophosphamide/topotecan",407 days
same,OS (overall survival),"refractory malignancies; Recurrent ependymoma patient, 9-ING-41 15 mg/kg + Irinotecan",403 days
same,OS (overall survival),"refractory malignancies; Rhabdomyosarcoma patient, 9-ING-41 15 mg/kg + Cyclophosphamide/topotecan",78 days
same,OS (overall survival),"refractory malignancies; Rhabdomyosarcoma patient, 9-ING-41 15 mg/kg + Irinotecan",19 days
same,Best Response,refractory malignancies; [22],SD (stable disease)
same,Status Last FUP,refractory malignancies; [22],Dead
same,Survival,refractory malignancies; [22],375 days
same,tolerability,refractory malignancies; heavily pre-treated pediatric patient population,well tolerated
same,reduction of tumor at the 1st tumor assessment (partial remission),"refractory malignancies; individual Ewing patients, elraglusib+cyclophosphamide/topotecan",52% and 96%
same,tumor response at 1st tumor assessment,"refractory malignancies; one metastatic, refractory Ewing patient, elraglusib+cyclophosphamide/topotecan, 2 months of treatment",complete remission
same,radiographic and pathologic response,"refractory malignancies; one patient with recurrent Ewing's sarcoma, after 3 cycles of elraglusib/cyclophosphamide/topotecan",complete response
same,time in remission with no evidence of disease after termination of treatment,"refractory malignancies; same Ewing patient, stopped all treatments after 4 months",~2 years
same,patients continuing on treatment,refractory malignancies; [23],three of the seven
same,patients remaining alive,refractory malignancies; [23],Four of the seven
same,"PD-L1 expression, western blot",[5],increase
same,"cPARP (apoptotic marker), western blot",[5],increase
same,"PD-L1 expression, western blot",[6],increase
same,"cPARP (apoptotic marker), western blot",[6],increase
